From ChEMBL document CHEMBL1121589, “Synthesis and biological activities of 5-(hydroxymethyl, azidomethyl, or aminomethyl)-2'-deoxyuridine and related 5'-substituted analogues” (J Med Chem, 1980)

What was measured:
Assay type in all cases: functional
[1] = tested on: Human alphaherpesvirus 1; experiment: Antiviral activity against herpes simplex virus type I was measured at 200 uM concentration.
[2] = tested on: Human alphaherpesvirus 1; experiment: Kinetic inhibition constant against herpes simplex virus type I pyrimidine deoxyribonucleoside kinase was measured
[3] = tested on: Human alphaherpesvirus 1; experiment: Antiviral activity against herpes simplex virus type I was measured at 400 uM concentration.
[4] = tested on: L1210; experiment: Compound tested for inhibition of the replication of L1210 cells in cell culture at 7 uM; settings: Mus musculus
[5] = tested on: L1210; experiment: Compound tested for inhibition of the replication of L1210 cells in cell culture; settings: Mus musculus, read-out: ED50 (the source's name)
[6] = Inhibitory activity against growth of sarcoma 180 cells at 1 uM; settings: Mus musculus, read-out: ED50 (the source's name)
[7] = tested on: L1210; experiment: Compound tested for inhibition of the replication of L1210 cells in cell culture at 200 uM; settings: Mus musculus
[8] = tested on: Human alphaherpesvirus 1; experiment: Antiviral activity against herpes simplex virus type I was measured at 5 uM concentration.

Compound | Control [1] | Ki [2] | Control [3] | also measured
[N-]=[N+]=NC[C@H]1O[C@@H](n2cc(CO)c(=O)[nH]c2=O)C[C@@H]1O | 100% | 31 µM | – | –
NCc1cn([C@H]2C[C@H](O)[C@@H](CN)O2)c(=O)[nH]c1=O | – | > 500 µM | 100% | –
NCc1cn([C@H]2C[C@H](O)[C@@H](CO)O2)c(=O)[nH]c1=O | – | 36 µM | 100% | inhibition at 7 µM [4]: 93%; EC50 [5]: 2 µM; EC50 [6]: 0.16 µM
[N-]=[N+]=NCc1cn([C@H]2C[C@H](O)[C@@H](CN=[N+]=[N-])O2)c(=O)[nH]c1=O | – | 62 µM | 100% | –
NC[C@H]1O[C@@H](n2cc(CO)c(=O)[nH]c2=O)C[C@@H]1O | – | 530 µM | 100% | –
[N-]=[N+]=NCc1cn([C@H]2C[C@H](O)[C@@H](CO)O2)c(=O)[nH]c1=O | 0.5% | 0.8 µM | – | inhibition at 200 µM [7]: 96%; EC50 [5]: 90 µM
O=c1[nH]c(=O)n([C@H]2C[C@H](O)[C@@H](CO)O2)cc1CO | 0.05% | 3.5 µM | – | –
O=c1[nH]c(=O)n([C@H]2C[C@H](O)[C@@H](CO)O2)cc1I [IDOXURIDINE] | – | 0.4 µM | – | Control [8]: 2%
